Results published in patent US11013232B2, “Hydrotesting and mothballing composition and method of using combination products for multifunctional water treatment” (priority 2014, dated 2021).

Assays:
[1] = Oxygen scavenging efficacy (real-time orbisphere oxygen sensor); conditions: 500 ppm
Protocol: Oxygen scavenging efficacy was evaluated using a real-time orbisphere oxygen sensor with data logging. The test equipment consisted of a stirrer plate and stirrer bar, a 1 liter test cell, circulation pump, flow chamber, oxygen sensor and data logger. Test work was performed using potable water taken from the mains water supply in The Woodlands, Tex. and then using filtered seawater taken from Galveston, Tex. Testing was performed at 4° C. and 25° C. by wrapping the test cell with a monoethylene glycol circulator chiller jacket. A carbon steel stirrer bar was added to the test cell to replicate turbulence that would be created upon pumping the hydrotest fluid using the metallurgy of a typical pipeline. A non-pulsing circulation pump was set to circulate the test fluid past the oxygen sensor at a rate of 10 mL·min^−1. The oxygen sensor was calibrated prior to every new test run. Each test was run for a duration of 60 minutes with a 10 minute stabilization period prior to the introduction of test chemical. Chemical was injected into the test cell by means of a needle and syringe through a rubber stopper to minimize any oxygen ingress during this stage of the test. Throughout the test, oxygen levels were measured once every minute and the data continuously logged.
All tests of the new formulations (detailed in Table 1) were benchmarked against has 50% ADMAC (specifically […]), 30% ammonium bisulfite and 20% water, herein referenced as Formulation 3 and detailed in Table 1. Furthermore ammonium bisulfite was used as a benchmark and the activity matched up to 30% which is the concentration used in all the formulations. Therefore all testing had the same concentration of oxygen scavenging component with the only variable being the other components of the formulation.
It should be noted that all testing was performed so that the concentration of oxygen scavenger was exactly the same in all tests so the only variables were the counter components in the formulations, this isolating the effects that combining components has upon the oxygen scavenging efficacy of the invented products. Therefore all formulations were added at 500 ppm. […] Furthermore, adding a dye into the formulation as well as the DDAC and DDABC, as is the case with Formulation 1, has no further negative effects on oxygen scavenging efficacy. It should be noted that scavenging in relatively warm seawater is not a very challenging environment to perform this testing in.

[2] = test system: General Heterotrophic Bacteria (GHB); assay: Most Probable Number (MPN) bacterial kill efficacy, GHB; format: cell-based, mixed consortia isolated from seawater; conditions: first MPN set; for GHB per mL: formulation with ammonium bisulfide, 500 ppm active biocide
Protocol: (§1) The Most Probably Number technique using a bacterial enumeration technique was performed, as described in NACE International Standard TMP 194-2004. Complex mixed consortia were isolated from seawater and subjected to the chemicals being tested. All chemicals were applied at the same active concentration. Surviving cells were assayed after exposure periods of 1, 7 and 28 days to the numbers compared with a control which received no treatments. The bottle tests were carried out using two mixed consortia—Sulfate Reducing Bacteria (SRB) and General Heterotrophic Bacteria (GHB) that also measured Acid Producing Bacteria (APB) enriched from seawater. Aliquots of the water (1 mL) were inoculated into SRB culture medium and GHB culture medium (Phenol Red Dextrose broth) respectively and sub-cultured twice. The cultures used in the tests were incubated at 30° C. for five days; these were then used to supplement seawater to achieve 10^3 to 10^4 SRB cells per mL. For the trial one control bottle and four test bottles were set up. The chemicals were added to the appropriate test bottles to give the final concentrations of each product as supplied. All chemicals were added so that 500 ppm of active biocide was present in each test. The control bottle contained seawater only with no added chemical.
(§2) At each time point, (one, seven and twenty-eight days), a sample was removed from each test bottle and the control bottle and used to inoculate the MPN vials. Bacterial counts were performed using the triplicate Most Probable Number method (triplicate MPNs). The inoculated MPN vials were incubated at 30° C. for 7 days for GHB and APB and 28 days for SRB. Results have been reported as cells per mL. […]

[3] = test system: Acid Producing Bacteria (APB); assay: Most Probable Number (MPN) bacterial kill efficacy, APB; format: cell-based, mixed consortia isolated from seawater; conditions: first MPN set; for APB per mL: formulation with ammonium bisulfide, 500 ppm active biocide
Protocol: as §1, §2

[4] = test system: Sulfate Reducing Bacteria (SRB); assay: Most Probable Number (MPN) bacterial kill efficacy, SRB; format: cell-based, mixed consortia isolated from seawater; conditions: first MPN set; for SRB per mL: formulation with ammonium bisulfide, 500 ppm active biocide
Protocol: as §1, §2

N.O=S(O)O [ABS 30%, ammonium bisulfite]
Oxygen level (ppm O2) ([1]; fresh water, 25° C., time 0 minutes (stabilization before chemical injection)): 8.314 ppm O2
Oxygen level (ppm O2) ([1]; fresh water, 25° C., time 2 minutes (stabilization before chemical injection)): 8.346 ppm O2
Oxygen level (ppm O2) ([1]; fresh water, 25° C., time 4 minutes (stabilization before chemical injection)): 8.310 ppm O2
Oxygen level (ppm O2) ([1]; fresh water, 25° C., time 6 minutes (stabilization before chemical injection)): 8.265 ppm O2
Oxygen level (ppm O2) ([1]; fresh water, 25° C., time 8 minutes (stabilization before chemical injection)): 8.345 ppm O2
Oxygen level (ppm O2) ([1]; fresh water, 25° C., time 10 minutes (end of 10 minute stabilization)): 8.302 ppm O2
Oxygen level (ppm O2) ([1]; fresh water, 25° C., time 12 minutes): 7.612 ppm O2
Oxygen level (ppm O2) ([1]; fresh water, 25° C., time 14 minutes): 6.674 ppm O2
Oxygen level (ppm O2) ([1]; fresh water, 25° C., time 16 minutes): 5.585 ppm O2
Oxygen level (ppm O2) ([1]; fresh water, 25° C., time 18 minutes): 4.732 ppm O2
Oxygen level (ppm O2) ([1]; fresh water, 25° C., time 20 minutes): 4.115 ppm O2
Oxygen level (ppm O2) ([1]; fresh water, 25° C., time 22 minutes): 3.765 ppm O2
Oxygen level (ppm O2) ([1]; fresh water, 25° C., time 24 minutes): 3.195 ppm O2
Oxygen level (ppm O2) ([1]; fresh water, 25° C., time 26 minutes): 3.027 ppm O2
Oxygen level (ppm O2) ([1]; fresh water, 25° C., time 28 minutes): 2.546 ppm O2
Oxygen level (ppm O2) ([1]; fresh water, 25° C., time 30 minutes): 1.863 ppm O2
Oxygen level (ppm O2) ([1]; fresh water, 25° C., time 32 minutes): 1.516 ppm O2
Oxygen level (ppm O2) ([1]; fresh water, 25° C., time 34 minutes): 1.173 ppm O2
Oxygen level (ppm O2) ([1]; fresh water, 25° C., time 36 minutes): 0.857 ppm O2
Oxygen level (ppm O2) ([1]; fresh water, 25° C., time 38 minutes): 0.654 ppm O2
Oxygen level (ppm O2) ([1]; fresh water, 25° C., time 40 minutes): 0.436 ppm O2
Oxygen level (ppm O2) ([1]; fresh water, 25° C., time 42 minutes): 0.349 ppm O2
Oxygen level (ppm O2) ([1]; fresh water, 25° C., time 44 minutes): 0.215 ppm O2
Oxygen level (ppm O2) ([1]; fresh water, 25° C., time 46 minutes): 0.134 ppm O2
Oxygen level (ppm O2) ([1]; fresh water, 25° C., time 48 minutes): 0.119 ppm O2
Oxygen level (ppm O2) ([1]; fresh water, 25° C., time 50 minutes): 0.096 ppm O2
Oxygen level (ppm O2) ([1]; fresh water, 25° C., time 52 minutes): 0.087 ppm O2
Oxygen level (ppm O2) ([1]; fresh water, 25° C., time 54 minutes): 0.063 ppm O2
Oxygen level (ppm O2) ([1]; fresh water, 25° C., time 56 minutes): 0.055 ppm O2
Oxygen level (ppm O2) ([1]; fresh water, 25° C., time 58 minutes): 0.050 ppm O2
Oxygen level (ppm O2) ([1]; fresh water, 25° C., time 60 minutes): 0.480 ppm O2
Oxygen level (ppm O2) ([1]; seawater, 4° C., time 0 minutes (stabilization before chemical injection)): 7.554 ppm O2
Oxygen level (ppm O2) ([1]; seawater, 4° C., time 2 minutes (stabilization before chemical injection)): 7.452 ppm O2
Oxygen level (ppm O2) ([1]; seawater, 4° C., time 4 minutes (stabilization before chemical injection)): 7.357 ppm O2
Oxygen level (ppm O2) ([1]; seawater, 4° C., time 6 minutes (stabilization before chemical injection)): 7.268 ppm O2
Oxygen level (ppm O2) ([1]; seawater, 4° C., time 8 minutes (stabilization before chemical injection)): 7.121 ppm O2
Oxygen level (ppm O2) ([1]; seawater, 4° C., time 10 minutes (end of 10 minute stabilization)): 6.997 ppm O2
Oxygen level (ppm O2) ([1]; seawater, 4° C., time 12 minutes): 2.125 ppm O2
Oxygen level (ppm O2) ([1]; seawater, 4° C., time 14 minutes): 0.454 ppm O2
Oxygen level (ppm O2) ([1]; seawater, 4° C., time 16 minutes): 0.269 ppm O2
Oxygen level (ppm O2) ([1]; seawater, 4° C., time 18 minutes): 0.064 ppm O2
Oxygen level (ppm O2) ([1]; seawater, 4° C., time 20 minutes): 0.047 ppm O2
Oxygen level (ppm O2) ([1]; seawater, 4° C., time 22 minutes): 0.029 ppm O2
Oxygen level (ppm O2) ([1]; seawater, 4° C., time 24 minutes): 0.009 ppm O2
Oxygen level (ppm O2) ([1]; seawater, 4° C., time 26 minutes): 0.003 ppm O2
Oxygen level (ppm O2) ([1]; seawater, 4° C., time 28 minutes): 0.002 ppm O2
Oxygen level (ppm O2) ([1]; seawater, 25° C., time 0 minutes (stabilization before chemical injection)): 7.112 ppm O2
Oxygen level (ppm O2) ([1]; seawater, 25° C., time 2 minutes (stabilization before chemical injection)): 7.081 ppm O2
Oxygen level (ppm O2) ([1]; seawater, 25° C., time 4 minutes (stabilization before chemical injection)): 7.029 ppm O2
Oxygen level (ppm O2) ([1]; seawater, 25° C., time 6 minutes (stabilization before chemical injection)): 7.084 ppm O2
Oxygen level (ppm O2) ([1]; seawater, 25° C., time 8 minutes (stabilization before chemical injection)): 7.066 ppm O2
Oxygen level (ppm O2) ([1]; seawater, 25° C., time 10 minutes (end of 10 minute stabilization)): 7.061 ppm O2
Oxygen level (ppm O2) ([1]; seawater, 25° C., time 12 minutes): 0.052 ppm O2
Oxygen level (ppm O2) ([1]; seawater, 25° C., time 14 minutes): 0.013 ppm O2
Oxygen level (ppm O2) ([1]; seawater, 25° C., time 16 minutes): 0.010 ppm O2
Oxygen level (ppm O2) ([1]; seawater, 25° C., time 18 minutes): 0.009 ppm O2
Oxygen level (ppm O2) ([1]; seawater, 25° C., time 20 minutes): 0.008 ppm O2
Oxygen level (ppm O2) ([1]; seawater, 25° C., time 22 minutes): 0.007 ppm O2
Oxygen level (ppm O2) ([1]; seawater, 25° C., time 24 minutes): 0.006 ppm O2
Oxygen level (ppm O2) ([1]; seawater, 25° C., time 26 minutes): 0.005 ppm O2
Oxygen level (ppm O2) ([1]; seawater, 25° C., time 28 minutes): 0.004 ppm O2

CC1(C)C(=O)N(CO)C(=O)N1CO [DMDM hydantoin, 1,3-Bis(hydroxymethyl)-5,5-dimethylimidazoline-2,4-dione]
GHB per mL ([2]; 24 h exposure): 9.5E+03 cells per mL
GHB per mL ([2]; 7 d exposure): 9.5E+05 cells per mL
GHB per mL ([2]; 28 d exposure): 2.5E+05 cells per mL
log reduction of planktonic GHB ([2]; exposure time of 24 hours): 1 log
APB per mL ([3]; 24 h exposure): 4.5E+02 cells per mL
APB per mL ([3]; 7 d exposure): 2.5E+02 cells per mL
APB per mL ([3]; 28 d exposure): 9.5E+04 cells per mL
log reduction of APB numbers ([3]; exposure time of 24 hours): no effect
SRB per mL ([4]; 24 h exposure): 9.5E+04 cells per mL
SRB per mL ([4]; 7 d exposure): 9.5E+02 cells per mL
SRB per mL ([4]; 28 d exposure): 4.5E+06 cells per mL
log reduction of planktonic SRB ([4]; exposure time of 24 hours): no effect
